These are literature values, as cited in patent US20260285919A1, “RECOMBINANT PEPTIDES AND COMPOSITIONS THEREOF FOR PAIN MANAGEMENT” (UNIVERSITY OF ROCHESTER, priority 2023, published 2026).

For one data set, the system named is mice. The conditions noted are these: for pain responses in injected paws: injected into the paws of mice.
Another data set deals with human ASIC1b. The conditions noted are these: human ASIC1b protein, as opposed to rodent ASIC1b.

As for “PcTx1 (EDCIPKWKGCVNRHGDCCEGLECWKRRRSFEVCVPKTPKT; UniProt P60514 1-40, looked up)”, the “pain responses in injected paws” value with mice is “this effect is not seen”.
For the substance mambalgin, in the data set with human ASIC1b, the “effect on the activity of human ASIC1b” value is recorded as “increases the activity of human ASIC1b”. The “analgesic effect in mice where ASIC1a is genetically deleted” value in the data set on mice (ASIC1a genetically deleted mice, ASIC1b present) was “still works”. Moreover, in the data set with mice, the “pain responses in injected paws” value was “much less sensitive”.
